What was measured:
normal human plasma = experiment: Measurement of anticoagulation effects (prolongation of plasma prothrombin time)
Protocol: Two μL of a dimethylsulfoxide solution of a test compound was put in the process tube and then incubated at 37° C. One minute after addition of 48 μL of normal human plasma (George King Bio-Medical Inc), 100 μL of plasma prothrombin time reagent (Boehringer Mannheim) prewarmed at 37° C. was added into the mixture. Prothrombin time was measured with a coagulometer (ST4, Boehringer Mannheim).
The group without any test compound was defined as the control. The concentration of test compound that prolonged the clotting time of the control by 2 times (CT2) was obtained and, this value was used as the index of anticoagulation activity.

human thrombin = target: T1, human thrombin (Homo sapiens, UniProt P00734); experiment: Measurement of inhibitory activity for thrombin (S-2238 chromogenic substrate); type: biochemical; settings: S-2238, 10 minutes at 37° C., pH 8.4
T1 construct: human thrombin (Sigma Chemical Company); purchased Sigma Chemical Company
Protocol: (§1) 2.5 μL of a dimethylsulfoxide solution of a test compound, 187.5 μL of 100 mM tris-200 mM NaCl buffer (pH 8.4) and 50 μL of 1 mM S-2238 (Daiichi Pure Chemicals) aqueous solution were poured into 96 well microplate. Then 10 μL of 2.0 U/mL human thrombin (Sigma Chemical Company) in gelatin-glycine buffer was added and the mixture was incubated for 10 minutes at 37° C. The reaction was terminated with the addition of 50 μL of 60% acetic acid and absorbance (405 nm) was measured by a microplate reader (SPECTRAmax 250, Molecular Devices).
The group with 2.5 μL of the dimethylsulfoxide solution instead of the test compound solution was defined as the control, and the group with 10 μL of the gelatin-glycine buffer solution instead of human thrombin was defined as the blank. The concentration of a test compound that inhibited the absorbance of control by 50% (IC50) was obtained, and this value was used as the index of inhibitory activity for thrombin.

[1] = target: T2, human activated blood coagulation factor X (Homo sapiens, UniProt P00742); experiment: Measurement of inhibitory activity for activated blood coagulation factor X (S-2222 chromogenic substrate); type: biochemical; settings: S-2222, 10 minutes at 37° C., pH 8.4
T2 construct: purchased Calbiochem
Protocol: as §1, with “S-2222” for “S-2238”, “0.6” for “2.0”, “activated blood coagulation factor X (Calbiochem)” for “thrombin (Sigma Chemical Company)”
Target sequence in this assay (P00742 235-488 limits assumed): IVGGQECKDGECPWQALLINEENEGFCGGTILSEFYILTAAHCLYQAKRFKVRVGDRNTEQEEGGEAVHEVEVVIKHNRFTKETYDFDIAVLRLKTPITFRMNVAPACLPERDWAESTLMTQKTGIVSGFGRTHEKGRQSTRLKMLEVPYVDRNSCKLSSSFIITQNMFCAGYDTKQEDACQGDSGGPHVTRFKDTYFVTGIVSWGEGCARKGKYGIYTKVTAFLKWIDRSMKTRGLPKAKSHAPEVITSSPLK
Target sequence in this assay (P00742 41-179 partner limits assumed): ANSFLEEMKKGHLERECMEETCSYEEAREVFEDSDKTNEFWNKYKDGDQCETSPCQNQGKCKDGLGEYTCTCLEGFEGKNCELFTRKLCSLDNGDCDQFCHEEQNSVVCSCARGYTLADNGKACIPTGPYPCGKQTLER
The group with 2.5 μL of the dimethylsulfoxide solution instead of the test compound solution was defined as the control, and the group with 10 μL of the gelatin-glycine buffer solution instead of human activated blood coagulation factor X was defined as the blank.

Male ICR mice = experiment: Acute toxicity test; type: in vivo; settings: 50.0 mg/10.0 mL/kg into tail vein, survival judged for 24 hours, groups of 5
Protocol: Male ICR mice aged 7 weeks (SLC) were divided into several groups consisted of 5 mice. A solution containing a test compound was prepared at the concentration that became the administration volume of the test compound to be 50.0 mg/10.0 mL/kg. The solution was administered into tail vein at an infusion rate of 1 mL/minute. Observations were performed at constant interval, and survival rate was judged for 24 hours. Results were shown as Table 5, and no death case was observed.

[2] = target: T2, human activated blood coagulation factor X; experiment: Oral administration test in rats: anti-activated blood coagulation factor X activity in plasma; type: in vivo, rat; settings: male Wistar rats, 30 minutes after oral administration, 30 mg/kg; plasma tested against human factor Xa
Protocol: (§2) Male Wistar rats aged 6–9 weeks (SLC) fasted overnight were used. A test compound was dissolved or suspended in 0.5% methylcellulose solution at the concentration of 6.0 mg/mL. Then 5.0 mL/kg of that was orally administrated into the rats. Before and at proper time points after administration of the test compound, citrated (1:10 dilution, 3.13% sodium citrate) blood was collected from the jugular vein. Plasma samples were obtained by centrifugation.
2.5 μL of plasma sample, 200 μL of 100 mM tris-200 mM NaCl buffer (pH 8.4) and 10 μL of 0.06 U/mL human activated blood coagulation factor X (Calbiochem) in gelatin-glycine buffer were poured into 96 well microplate. Then 50 μL of 1 mM S-2222 (Daiichi Pure Chemicals) aqueous solution was added and the mixture was incubated for 10 minutes at room temperature. The reaction was terminated with the addition of 50 μL of 60% acetic acid and absorbance (405 nm) was measured by a microplate reader (SPECTRAmax 250, Molecular Devices).
The group with 2.5 μL of the control plasma instead of the plasma sample was defined as the control, and the group with 10 μL of gelatin-glycine buffer solution instead of human activated blood coagulation factor X was defined as the blank. The inhibitory % of plasma sample was calculated from absorbance of the control as 100% and this value was used as the index of anti-activated blood coagulation factor X activity in plasma.
(§3) 4) Results of anti-activated blood coagulation factor X activity in plasma and PT ratio at 30 minutes after oral administration of each test compound at a dose of 30 mg/kg were shown as Table 4.
Target sequence in this assay (P00742 235-488 limits assumed): as the sequence (P00742 235-488 limits assumed) above
Target sequence in this assay (P00742 41-179 limits assumed): as the sequence (P00742 41-179 partner limits assumed) above

plasma prothrombin time = experiment: Oral administration test in rats: prothrombin time (PT) of plasma; type: in vivo, rat; settings: male Wistar rats, 30 minutes after oral administration, 30 mg/kg; PT after administration to that before
Protocol: as §2
Fifty μL of plasma was put in the process tube and then incubated at 37° C. One minute later, 100 μL of plasma PT reagent (Boehringer Mannheim) prewarmed at 37° C. was added into the mixture. PT was measured with a coagulometer (ST4, Boehringer Mannheim).
The ratio of PT at each time point after administration of the test compound to that of before administration was used as the index of anticoagulation activity.
as §3

SMILES	Anticoagulation activity (μM): concentration that prolonged the clotting time of the control by 2 times (CT2) (normal human plasma) [µM]	IC50 (human thrombin) [µM]	IC50 [1] [nM]	Death case (Male ICR mice)	Anti-activated blood coagulation factor X activity in plasma (%) [2] [%]	PT ratio (plasma prothrombin time)
CS(=O)(=O)c1ccccc1-c1ccc(CCNS(=O)(=O)c2cc(C(=N)N)ccc2O)c(OCC(=O)O)c1.Cl [Compound 33, [4-[2-(5-Carbamimidoyl-2-hydroxybenzenesulfonylamino)-ethyl]-2′-methanesulfonoylbiphenyl-3-yloxy]acetic acid hydrochloride]	0.52	> 100	–	–	–	–
CC(C)c1ccc(CCNS(=O)(=O)c2cc(C(=N)N)ccc2O)c(OCC(=O)O)c1 [Compound 42, [2-[2-(5-Carbamimidoyl-2-hydroxybenzenesulfonylamino)-ethyl]-5-isopropylphenoxy]acetic acid]	2.4	> 100	100	0/5	–	–
CCOC(=O)COc1cc(-c2ccccc2S(C)(=O)=O)ccc1CCNS(=O)(=O)c1cc(C(=N)NO)ccc1O [Compound 43, Ethyl[4-[2-[2-hydroxy-5-(N-hydroxycarbamimidoyl)-benzenesulfonylamino]ethyl]-2′-mthanesulfonylbiphenyl-3-yloxy]acetate]	–	–	–	–	32.0	1.31
CCCCOC(=O)COc1cc(-c2ccccc2S(C)(=O)=O)ccc1CCNS(=O)(=O)c1cc(C(=N)NO)ccc1O.Cl [Compound 48, n-Butyl[4-[2-[2-Hydroxy-5-(N-hydroxycarbamimidoyl)-benzenesulfonylamino]ethyl]-2′-methanesulfonylbiphenyl-3-yloxy]acetate hydrochloride]	–	–	–	–	58.2	1.50
CS(=O)(=O)c1ccccc1-c1ccc(CCNS(=O)(=O)c2cc(C(=N)NO)ccc2O)c(OCC(=O)OC2CCCCC2)c1 [Compound 49, Cyclohexyl[4-[2-[2-hydroxy-5-(N-hydroxycarbamimidoyl)-benzenesulfonylamino]ethyl]-2′-methanesulfonylbiphenyl-3-yloxy]acetate]	–	–	–	–	51.4	1.43
CC(C)c1ccc(CCNS(=O)(=O)c2cc(C(=N)N)ccc2O)c(S(N)(=O)=O)c1 [Compound 52, 5-Carbamimidoyl-2-hydroxy-N-[2-(4-isopropyl-2-sulfamoylphenyl)ethyl]benzenesulfonamide]	–	> 100	16	–	–	–
Cc1nc(CN(CCc2ccc(C(C)C)cc2OCC(=O)O)S(=O)(=O)c2cc(C(=N)N)ccc2O)cs1 [Compound 53, [2-[2-[(5-Carbamimidoyl-2-hydroxybenzenesulfonyl)-(2-methyl-1,3-thiazol-4-ylmethyl)amino]ethyl]-5-isopropylphenoxy]acetic acid]	–	> 100	51	–	–	–

From patent publication US7208524B2, “5-amidino-2-hydroxybenzenesulfonamide derivatives, pharmaceutical compositions containing the same and intermediates for their preparation” (Kissei Pharmaceutical Co., Ltd., priority 2000, dated 2007)
